In the assay the target is T1, Human M4 (Homo sapiens, UniProt P08173).
T1 construct: expressed in transfected cells
T1 sequence (P08173 1-479): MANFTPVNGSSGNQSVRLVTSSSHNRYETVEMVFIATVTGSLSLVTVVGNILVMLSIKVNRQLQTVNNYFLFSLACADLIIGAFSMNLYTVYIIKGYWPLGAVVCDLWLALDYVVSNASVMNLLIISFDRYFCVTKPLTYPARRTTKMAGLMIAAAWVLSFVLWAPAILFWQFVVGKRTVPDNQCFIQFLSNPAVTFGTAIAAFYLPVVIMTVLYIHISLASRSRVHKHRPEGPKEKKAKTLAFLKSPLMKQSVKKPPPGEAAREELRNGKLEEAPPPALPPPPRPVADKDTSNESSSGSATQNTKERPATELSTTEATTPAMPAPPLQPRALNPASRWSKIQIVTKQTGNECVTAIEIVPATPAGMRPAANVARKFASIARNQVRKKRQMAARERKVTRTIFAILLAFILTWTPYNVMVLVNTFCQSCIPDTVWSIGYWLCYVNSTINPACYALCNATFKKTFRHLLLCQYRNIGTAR
Description: mAChR M4 cell-based functional assay (calcium flux, potentiation of EC20 acetylcholine response), hM4-Gqi5 CHO-K1 cells. The note with it: for Emax at 30 µM: CHO-K1, % ACh maximum at 30 μM; for EC50: calcium flux, read-out: Human M4 EC50. As to the method:
Human and rat M4 cDNAs, along with the chimeric G protein Gqi5, were transfected into Chinese hamster ovary (CHO-K1) cells purchased from the American Type Culture Collection using Lipofectamine2000. hM4-Gqi5 cells were grown in Ham's F-12 medium containing 10% heat-inactivated fetal bovine serum (FBS), 20 mM HEPES, 50 μg/mL G418 sulfate, and 500 μg/mL Hygromycin B. rM4-Gqi5 cells were grown in DMEM containing 10% heat-inactivated FBS, 20 mM HEPES, 400 μg/mL G418 sulfate, and 500 μg/mL Hygromycin B.
For high throughput measurement of agonist-evoked increases in intracellular calcium, CHO-K1 cells stably expressing muscarinic receptors were plated in growth medium lacking G418 and hygromycin at 15,000 cells/20 μL/well in Greiner 384-well black-walled, tissue culture (TC)-treated, clear-bottom plates (VWR). Cells were incubated overnight at 37° C. and 5% CO2. The next day, cells were washed using an ELX 405 (BioTek) with assay buffer; the final volume was then aspirated to 20 μL. Next, 20 μL of a 2.3 μM stock of Fluo-4/acetoxymethyl ester (Invitrogen, Carlsbad, CA), prepared as a 2.3 mM stock in DMSO and mixed in a 1:1 ratio with 10% (w/v) Pluronic F-127 and diluted in assay buffer, was added to the wells and the cell plates were incubated for 50 min at 37° C. and 5% CO2. Dye was removed by washing with the ELX 405 and the final volume was aspirated to 20 μL. Compound master plates were formatted in an 11 point concentration-response curve (CRC) format (1:3 dilutions) in 100% DMSO with a starting concentration of 10 mM using a BRAVO liquid handler (Agilent). Test compound CRCs were then transferred to daughter plates (240 nL) using the Echo acoustic plate reformatter (Labcyte, Sunnyvale, CA) and then diluted into assay buffer (40 μL) to a 2× stock using a Thermo Fisher Combi (Thermo Fisher Scientific, Waltham, MA).
Calcium flux was measured using the Functional Drug Screening System (FDSS) 6000 or 7000 (Hamamatsu Corporation, Tokyo, Japan) as an increase in the fluorescent static ratio. Compounds were applied to cells (20 μL, 2×) using the automated system of the FDSS at 2-4 seconds into the protocol and the data were collected at 1 Hz. At 144 seconds, 10 μL of an EC20 concentration of the muscarinic receptor agonist acetylcholine was added (5×), followed by the addition of 12 μL of an EC80 concentration of acetylcholine at the 230 second time point (5×). Agonist activity was analyzed as a concentration-dependent increase in calcium mobilization upon compound addition. Positive allosteric modulator activity was analyzed as a concentration-dependent increase in the EC20 acetylcholine response. Antagonist activity was analyzed as a concentration-dependent decrease in the EC80 acetylcholine response. Concentration-response curves were generated using a four-parameter logistical equation in XLFit curve fitting software (IDBS, Bridgewater, NJ) for Excel (Microsoft, Redmond, WA) or Prism (GraphPad Software, Inc., San Diego, CA).
Compounds were synthesized as described above. Activity (EC50 and Emax) was determined in the mAChR M4 cell-based functional assay as described above and the data are shown in Tables 2-4. The compound number corresponds to the compound numbers used in Table 1.

[1] abbreviates: Table 3, Human M4, read-out: Emax (% ACh maximum at 30 μM).
[2] abbreviates: Table 3, potentiation of EC20 acetylcholine response, CHO-K1 cells.
The mark [3] stands for this setting: Table 4, Human M4, read-out: Emax (% ACh maximum at 30 μM).
[4] abbreviates: Table 4, potentiation of EC20 acetylcholine response, CHO-K1 cells.
Where [5] appears, read: hM4-Gqi5 CHO-K1 cells, PAM of EC20 acetylcholine.

Where two headings read alike, the source gives them in different places.

In general, Emax refers to the size of the effect at its maximum, as opposed to the concentration needed. In general, EC50 refers to the concentration at which the effect is half-maximal. Consider `Cc1c(N2CCc3ncc(OCC4CC4(F)F)cc3C2)nn2cnnc2c1C` (centres unmarked) [Compound 266, 3-((2,2-difluorocyclopropyl)methoxy)-6-(7,8-dimethyl-[1,2,4]triazolo[4,3-b]pyridazin-6-yl)-5,6,7,8-tetrahydro-1,6-naphthyridine], for which the Emax at 30 µM under setting [1] is 93%. In addition, the EC50 under setting [2] amounted to 0.346 µM.

Turning to `Cc1cc2nncn2nc1N1CCc2ncc(Nc3nn(C)c4ccccc34)cc2C1` [Compound 204, N-(1-methyl-1H-indazol-3-yl)-6-(7-methyl-[1,2,4]triazolo[4,3-b]pyridazin-6-yl)-5,6,7,8-tetrahydro-1,6-naphthyridin-3-amine], the Emax at 30 µM under setting [1] was 62%. The EC50 under setting [2] was 3.55 µM.

As for `Cc1c(N2CCc3ncc(-c4ccns4)cc3C2)nn2c(C(F)(F)F)nnc2c1C` [Compound 252, 5-(6-(7,8-dimethyl-3-(trifluoromethyl)-[1,2,4]triazolo[4,3-b]pyridazin-6-yl)-5,6,7,8-tetrahydro-1,6-naphthyridin-3-yl)isothiazole], the Emax at 30 µM under setting [1] is 80%. Besides, under setting [2], the EC50 is 0.14 µM.

Take `Cc1c(N2Cc3cc(N4CCOCC4)cnc3C(C)C2)nn2cnnc2c1C` (centres unmarked) [Compound 331, 4-(6-(7,8-dimethyl-[1,2,4]triazolo[4,3-b]pyridazin-6-yl)-8-methyl-5,6,7,8-tetrahydro-1,6-naphthyridin-3-yl)morpholine]: under setting [3], the Emax at 30 µM came to 94%. Also, the EC50 under setting [4] was found to be 0.7 µM.

As for `Cc1c(N2CCc3ncc(Nc4ccccc4C#N)cc3C2)nn2cnnc2c1C` [Compound 52, 2-[[6-(7,8-dimethyl-[1,2,4]triazolo[4,3-b]pyridazin-6-yl)-7,8-dihydro-5H-1,6-naphthyridin-3-yl]amino]benzonitrile], the Emax at 30 µM (human M4, read-out: Emax) was 76%. Also, the EC50 under setting [5] worked out at 0.381 µM.

As to `[2H]C1([2H])Cc2ncc(Nc3cc(C)ncc3F)cc2C([2H])([2H])N1c1nn2cnnc2c(C)c1C` [Compound 353, 6-(7,8-dimethyl-[1,2,4]triazolo[4,3-b]pyridazin-6-yl)-N-(5-fluoro-2-methylpyridin-4-yl)-5,6,7,8-tetrahydro-1,6-naphthyridin-5,5,7,7-d4-3-amine], the Emax at 30 µM under setting [3] worked out at 99%. Moreover, the EC50 under setting [4] is 0.022 µM.

Regarding `Cc1ccccc1Nc1cnc2c(c1)CN(c1nn3cnnc3c(C)c1C)CC2` [Compound 53, 6-(7,8-dimethyl-[1,2,4]triazolo[4,3-b]pyridazin-6-yl)-N-(o-tolyl)-7,8-dihydro-5H-1,6-naphthyridin-3-amine], the Emax at 30 µM (human M4, read-out: Emax) amounted to 91%. Moreover, the EC50 under setting [5] is 0.0861 µM.

Regarding `Cc1cc2nncn2nc1N1CCc2ncc(-c3c(C)noc3C)cc2C1` [Compound 105, 3,5-dimethyl-4-[6-(7-methyl-[1,2,4]triazolo[4,3-b]pyridazin-6-yl)-7,8-dihydro-5H-1,6-naphthyridin-3-yl]isoxazole], under “human M4, read-out: Emax”, the Emax at 30 µM was found to be 86%. Under setting [5], the EC50 is 0.325 µM.

On to `Cc1c(N2CCc3ncc(Nc4cc(F)cc(F)c4F)cc3C2)nn2cnnc2c1C` [Compound 30, 6-(7,8-dimethyl-[1,2,4]triazolo[4,3-b]pyridazin-6-yl)-N-(2,3,5-trifluorophenyl)-7,8-dihydro-5H-1,6-naphthyridin-3-amine], for which, for the setting “human M4, read-out: Emax”, the Emax at 30 µM is 94%. In addition, the EC50 under setting [5] was determined as 0.12 µM.

As to `Cc1c(N2CCc3ncc(Oc4ccc(OC(F)(F)F)c(F)c4)cc3C2)nn2cnnc2c1C` [Compound 6, 6-(7,8-dimethyl-[1,2,4]triazolo[4,3-b]pyridazin-6-yl)-3-[3-fluoro-4-(trifluoromethoxy)phenoxy]-7,8-dihydro-5H-1,6-naphthyridine], under “human M4, read-out: Emax”, the Emax at 30 µM is 33%. The EC50 under setting [5] is 3.62 µM.

In the case of `Cc1c(N2CCc3ncc(Nc4cnn(C)c4)cc3C2)nn2cnnc2c1C` [Compound 163, 6-(7,8-dimethyl-[1,2,4]triazolo[4,3-b]pyridazin-6-yl)-N-(1-methyl-1H-pyrazol-4-yl)-5,6,7,8-tetrahydro-1,6-naphthyridin-3-amine], the Emax at 30 µM under setting [1] amounted to 107%. Besides, the concentration giving a half-maximal response (EC50) under setting [2] was 0.754 µM.

In the case of `Cc1c(N2CCc3ncc(OCC4COC4)cc3C2)nn2cnnc2c1C` [Compound 262, 6-(7,8-dimethyl-[1,2,4]triazolo[4,3-b]pyridazin-6-yl)-3-(oxetan-3-ylmethoxy)-5,6,7,8-tetrahydro-1,6-naphthyridine], under setting [1], the Emax at 30 µM worked out at 82%. Moreover, the EC50 under setting [2] is 1.58 µM.

In the case of `Cc1c(N2CCc3ncc(Nc4c(F)cccc4Cl)cc3C2)nn2cnnc2c1C` [Compound 64, N-(2-chloro-6-fluoro-phenyl)-6-(7,8-dimethyl-[1,2,4]triazolo[4,3-b]pyridazin-6-yl)-7,8-dihydro-5H-1,6-naphthyridin-3-amine], the Emax at 30 µM (human M4, read-out: Emax) is 96%. Further, the EC50 under setting [5] is 0.788 µM.

Consider `Cc1cnc2c(c1)CN(c1nn3cc(C(=O)N4CCN(C)CC4)nc3cc1C)CC2` [Compound 169, (7-methyl-6-(3-methyl-7,8-dihydro-1,6-naphthyridin-6(5H)-yl)imidazo[1,2-b]pyridazin-2-yl)(4-methylpiperazin-1-yl)methanone], for which, under setting [1], the Emax at 30 µM was found to be 111%. The EC50 under setting [2] is 1.18 µM.

On to `[2H]c1nnc2c(C)c(C)c(N3CCc4ncc(Nc5ccccc5F)cc4C3)nn12` [Compound 71, 6-(3-deuterio-7,8-dimethyl-[1,2,4]triazolo[4,3-b]pyridazin-6-yl)-N-(2-fluorophenyl)-7,8-dihydro-5H-1,6-naphthyridin-3-amine], for which, for the setting “human M4, read-out: Emax”, the Emax at 30 µM amounted to 102%. Moreover, under setting [5], the EC50 was found to be 0.0656 µM.

Consider `COCc1c(N2CCc3ncc(C(F)(F)F)cc3C2)nn2cnnc2c1C` [Compound 349, 6-(7-(Methoxymethyl)-8-methyl-[1,2,4]triazolo[4,3-b]pyridazin-6-yl)-3-(trifluoromethyl)-5,6,7,8-tetrahydro-1,6-naphthyridine], for which, under setting [3], the Emax at 30 µM amounted to 106%. Also, under setting [4], the EC50 turned out to be 0.093 µM.

On to `Cc1c(N2CCc3ncc(Nc4nn(C)c5ccccc45)cc3C2)nn2cnnc2c1C` [Compound 210, 6-(7,8-dimethyl-[1,2,4]triazolo[4,3-b]pyridazin-6-yl)-N-(1-methyl-1H-indazol-3-yl)-5,6,7,8-tetrahydro-1,6-naphthyridin-3-amine], for which the Emax at 30 µM under setting [1] was 69%. The EC50 under setting [2] came to 0.9 µM.

As for `Cc1c(N2CCc3ncc(-n4cccc4)cc3C2)nn2c(C(F)(F)F)nnc2c1C` [Compound 244, 6-(7,8-dimethyl-3-(trifluoromethyl)-[1,2,4]triazolo[4,3-b]pyridazin-6-yl)-3-(1H-pyrrol-1-yl)-5,6,7,8-tetrahydro-1,6-naphthyridine], under setting [1], the Emax at 30 µM turned out to be 86%. The EC50 under setting [2] was 0.546 µM.

Turning to `COc1cccc(Nc2cnc3c(c2)CN(c2nn4cnnc4c(C)c2C)CC3)c1F` [Compound 65, 6-(7,8-dimethyl-[1,2,4]triazolo[4,3-b]pyridazin-6-yl)-N-(2-fluoro-3-methoxy-phenyl)-7,8-dihydro-5H-1,6-naphthyridin-3-amine], the Emax at 30 µM (human M4, read-out: Emax) was found to be 104%. Also, the EC50 under setting [5] was found to be 0.188 µM.

(Values after patent publication US20250002507A1, “7,8-DIHYDRO-5H-1,6-NAPHTHYRIDINE DERIVATIVES AS POSITIVE ALLOSTERIC MODULATORS OF THE MUSCARINIC ACETYLCHOLINE RECEPTOR M4 FOR TREATING NEUROLOGICAL AND PSYCHIATRIC DISORDERS” (Vanderbilt University, priority 2021, published 2025).)
